Values of other authors, collected in US20180228146A1, “INSECTICIDAL COMPOSITION AND METHOD” (priority 2014, published 2018).
In brackets after ≈: the same amount, converted by molar mass.

CCOP(=S)(OCC)Oc1nc(Cl)c(Cl)cc1Cl [chlorpyrifos, O,O-diethyl O-3,5,6-trichloro-2-pyridyl phosphorothioate]
Henry's law constant at 25° C. (25° C.): 6.76 × 10^−1 Pa m^3 mol^−1
Vapour pressure at 25° C. (25° C.): 2.7 mPa
Solubility Acetone (25° C.) (acetone, 25° C.): 6500 g/kg
Solubility Benzene (25° C.) (benzene, 25° C.): 7900 g/kg
Solubility Carbon disulfide (25° C.) (carbon disulfide, 25° C.): 5900 g/kg
Solubility Chloroform (25° C.) (chloroform, 25° C.): 6300 g/kg
Solubility Diethyl ether (25° C.) (diethyl ether, 25° C.): 5100 g/kg
Stability (hydrolysis, with pH): Rate of hydrolysis increases
Solubility Iso-octanol (25° C.) (iso-octanol, 25° C.): 790 g/kg
Solubility Methanol (25° C.) (methanol, 25° C.): 450 g/kg
DT50 (phosphate buffer, pH 7, 15° C.) (phosphate buffer, pH 7, 15° C.): 100 d
Solubility water (25° C.) (water, 25° C.): 1.4 µg/mL (≈ 3.99 µM)
DT50 (water, pH 8, 25° C.) (water, pH 8, 25° C.): 1.55 d
Solubility Xylene (25° C.) (xylene, 25° C.): 5000 g/kg
